From patent publication US4122078A, “Antigens and antibodies of catecholamines” (priority 1975, dated 1978)

What was measured:
[1] = test system: epinephrine antibodies (γ-globulin fraction obtained in Example 2); assay: Equilibrium dialysis method, specificity of the epinephrine antibodies; parameters: species or system rabbit; details: binding of 3H-DL-epinephrine (10μl of 3.4×10^-5 M) with 10μl of 3.4×10^-3 M compound; antibody 5.5 × 10^-6 M; 25° C; 100 = no compound
Experimental: The γ-globulin fraction obtained in Example 2 was dialyzed against the phosphate buffered saline and a solution of the final concentration of 0.94mg/ml was performed prepared. The γ-globulin solution was used as the antibody solution in this method. To the phosphate buffered saline used in this procedure, 0.01% of sodium metabisufite(Na2 S2 O5) and 0.015% ethylenediaminetetraacetic acid disodium salt were added.
An equilibrium dialysis apparatus of 2ml capacity was used and 500μl of the antibody solution was poured into one of a pair cell(cell A) and into another cell(cell B), 10μl of the phosphate buffered saline solution of DL-epinephrine labelled with tritium(^3 H) in a concentration of 3.4×10^-5 M and 490μl of phosphate buffered saline were introduced. They were shaked at 25° C to reach equilibrium and then radioactivity of each solution were counted. The difference of each counts was calculated and made as the standard.
Then, 500μl of γ-globulin solution was put in cell A, and in cell B were introduced 10μl of a solution of the concentration of 3.4×10^-3 M of epinephrine or one of other catecholamine or analogue compounds, 10μl of a phosphate buffered saline solution of ^3 H-epinephrine (3.4×10^-5 M) and 480μl of phosphate buffered saline. The solutions were shaked by the same manner as above and after equilibrium, the radioactivity of each solution were counted. The difference was calculated and the relative bindings were calculated from the standard.

[2] = test system: antiserum to norepinephrine; assay: Ouchterlony method, specificity of antiserum to norepinephrine; type: binding, rabbit; parameters: key: the degree of the precipitate formation were indicated by the signs of +++, ++,+-, and -, in turn; the degree of the precipitate formation were indicated by the signs of +++, ++,+-, and -, in turn; the degree of the precipitate formation were indicated by the signs of +++, ++,+-, and -, in turn; the degree of the precipitate formation were indicated by the signs of +++, ++,+-, and -, in turn; details: antigen 1mg/ml; antiserum after removal of antibodies to carrier material
Experimental: (§1) Agar was dissolved in phosphate buffered saline with warming to yield a final concentration of 1.2% and the solution was spread 2 mm in thickness on a glass plate. After cooling, 7 holes of 2mm diameter were made on the center and corners of a true hexagon with 5 mm side. In the center hole, the antiserum obtained above or diluted thereof to 1/2-1/3 with the phosphate buffered saline was filled. In the corner holes, the phosphate buffered saline solution of the conjugate (0.5-1.0mg/ml) and BSA were filled alternately. […] Therefore, an equal volume of BSA solution (1mg/ml) was added to the antiserum and the mixture was allowed to stand at 37° C for 1 hour, then at 4° C overnight. The resulted precipitates were removed by centrifuging. […] This antiserum was then dialyzed with 6M urea solution for 15 hours followed with phosphate buffer (0.007M NaH2 PO4,pH 6.3) for 2 days. The resulting solution was passed through a DEAE-cellulose column and the first fraction (gamma globulin fraction,γG-fraction) was collected with examining the absorbance at 280nm. […] The γG-fraction was dialyzed with water and lyophilized for the stock.
By the same manner as in Example 1, the antiserum of norepinephrine was produced and after removing the BSA-antibody, the γ-globuline fraction was obtained.
(§2) The specificity of antisera to the antigens was examined by the Ouchterlony method. […]

antiserum to L-dopa-BSA = assay: Ouchterlony method, specificity of antiserum to L-dopa-BSA; type: binding, rabbit; parameters: key: the degree of the precipitate formation were indicated by the signs of +++, ++,+-, and -, in turn; the degree of the precipitate formation were indicated by the signs of +++, ++,+-, and -, in turn; the degree of the precipitate formation were indicated by the signs of +++, ++,+-, and -, in turn; the degree of the precipitate formation were indicated by the signs of +++, ++,+-, and -, in turn; details: antigen 1mg/ml; antiserum after removal of antibodies to carrier material
Experimental: The phosphate buffered saline solution of the conjugate was mixed with an equal volume of complete Freund's adjuvant to prepare a w/o type emulsion. The emulsion was intradermally injected to rabbit foot pads in the amount of 2-3mg of the antigen. After four weeks, phosphate buffered saline solution of the conjugate (1mg) was injected into the marginal vein of the rabbit ear. (This operation can be replaced by injecting subcutaneously the w/o emulsion of phosphate buffered saline solution of the conjugate (1mg) and incomplete Freund's adjuvant). One week after the booster injection, the rabbit were bled and the antisera were obtained.
Agar was dissolved in phosphate buffered saline with warming to yield a final concentration of 1.2% and the solution was spread 2 mm in thickness on a glass plate. After cooling, 7 holes of 2mm diameter were made on the center and corners of a true hexagon with 5 mm side. In the center hole, the antiserum obtained above or diluted thereof to 1/2-1/3 with the phosphate buffered saline was filled. […] Therefore, an equal volume of BSA solution (1mg/ml) was added to the antiserum and the mixture was allowed to stand at 37° C for 1 hour, then at 4° C overnight. […] The resulting solution was passed through a DEAE-cellulose column and the first fraction (gamma globulin fraction,γG-fraction) was collected with examining the absorbance at 280nm. […]

[3] = test system: antiserum to dopamine-BSA; assay: Ouchterlony method, specificity of antiserum to dopamine-BSA; type: binding, rabbit; parameters: key: the degree of the precipitate formation were indicated by the signs of +++, ++,+-, and -, in turn; the degree of the precipitate formation were indicated by the signs of +++, ++,+-, and -, in turn; the degree of the precipitate formation were indicated by the signs of +++, ++,+-, and -, in turn; the degree of the precipitate formation were indicated by the signs of +++, ++,+-, and -, in turn; details: antigen 1mg/ml; antiserum after removal of antibodies to carrier material
Experimental: as §1
According to the same manner as in Example 1, the dopamine specific antibody and γG-fraction thereof was obtained.
as §2

[4] = test system: antiserum to epinephrine-BSA; assay: Ouchterlony method, specificity of antiserum to epinephrine-BSA; type: binding, rabbit; parameters: key: the degree of the precipitate formation were indicated by the signs of +++, ++,+-, and -, in turn; the degree of the precipitate formation were indicated by the signs of +++, ++,+-, and -, in turn; the degree of the precipitate formation were indicated by the signs of +++, ++,+-, and -, in turn; the degree of the precipitate formation were indicated by the signs of +++, ++,+-, and -, in turn; details: antigen 1mg/ml; antiserum after removal of antibodies to carrier material
Experimental: as §1
Epinephrine specific antiserum was produced and γG-fraction was obtained by the same manner as in Example 1 using the phosphate buffered saline solution of the conjugate and complete Freund's adjuvant. […]

Compound	relative binding (%) [1]	further results
COc1cc(C(O)CN)ccc1O (racemic) [DL-normetanephrine]	97.2%	–
CC(C)NC[C@H](O)c1ccc(O)c(O)c1 [L-isoproterenol]	72.9%	–
NCCc1ccc(O)c(O)c1 [dopamine]	88.0%	–
NC[C@H](O)c1ccc(O)c(O)c1 [L-norepinephrine]	54.8%	–
O=C(O)Cc1ccc(O)c(O)c1 [3,4-dihydroxyphenylacetic acid]	83.8%	–
norepinephrine-BSA: 20-30 moles of norepinephrine conjugated to one mole of BSA	–	degree of the precipitate formation, antiserum to norepinephrine [2]: ++; degree of the precipitate formation, antiserum to L-dopa-BSA (antiserum to L-dopa-BSA): +-; degree of the precipitate formation, antiserum to dopamine-BSA [3]: +-; degree of the precipitate formation, antiserum to epinephrine-BSA [4]: +-
CNCC(O)c1ccc(O)c(OC)c1 (racemic) [DL-methanephrine]	81.7%	–
CNC[C@H](O)c1ccc(O)c(O)c1 [L-epinephrine]	0%	–
COc1cc(CC(=O)O)ccc1O [4-hydroxy-3-methoxyphenylacetic acid]	91.7%	–
N[C@@H](Cc1ccc(O)c(O)c1)C(=O)O [L-dopa]	90.7%	–
